Data from US20060063930A1, “Compositions and methods comprising proteinase activated receptor antagonists” (priority 2004, published 2006).
Counter-ions that a name gives are not always drawn.

Test system: PAR-2
Assay: Inhibition of PAR-2 activating peptide (AP2) calcium signaling in cells pretreated with antagonist
Type: cell-based, human
Design: key to PAR-2 AP2 Signaling Treated/Control (T/C) / PAR-2 AP2 Signaling Treated/Control: AUC of calcium mobilization, treated ÷ control wells
Settings: mimetic antagonists; AUC of calcium mobilization treated/control; initially screened at 1 mM compound
Protocol: In order to assess the potential of peptides and molecules selected above to block PAR-2 signaling, cells were pretreated with potential antagonist peptides for a predetermined amount of time and were subsequently treated with various GPCR agonists. Confluent Lewis lung carcinoma (LLC) cells were loaded for 30-60 minutes with the fluorescent dye Fluo-4. Final concentration 4 uM Fluo-4, 0.02% pluronic acid in physiological buffer. Cells were then washed with assay buffer, (HBSS containing 1 mM CaCl2, 1 mM MgSO4, and 2.5 mM probenecid). Cells were stimulated with various doses of PAR-2 activating peptide, PAR-1 activating peptide or ATP. Fluorescence was monitored using a Wallac 1470 fluorescent plate reader. (See Al-ani et. al Journal of Pharmacology and Experimental Therapeutics 290:2, 753-760). Additional compound screening was performed using U87-MG human glioma cells. In this assay cells were labeled with FLIPR Calcium 3 dye (Component A), which was dissolved in 10 mls of Assay Buffer without Probenecid. Loading buffer was prepared by diluting Component A with an additional 90 mls of Assay Buffer without Probenecid, giving a total volume of a 100 ml. For plate loading, 11 mls of FLIPR Calcium 3 dye (Component A) is placed into a 15 ml conical tube+110 μl of 250 mM Probenecid, at a final in-well working volume of 2.5 mM. Finally, 50 μl of Calcium 3 dye was added wells containing 100 μl media, and incubated 1 hr, 37° C., 5% CO2. Calcium signaling was then measured using a Flexstation II (Molecular Devices) following manufacturer's instructions.
Potential antagonist compounds were initially screened at 1 mM compound concentration. Those compounds with activity were then subjected to additional confirmatory testing. Activity is reported as treated/controlled (T/C) where the area under the curve (AUC) of calcium mobilization plots in treated wells is divided by the AUC of calcium mobilization plots in control wells to generate a measure of inhibition.

SMILES	PAR-2 AP2 Signaling Treated/Control
CC(C)CC(=O)NCCNC(=O)Cc1ccc(N)cc1.Cl [ENMD-1416, N-(2-(2-(4-aminophenyl)acetamido)ethyl)-3-methylbutan-amide hydrochloride]	0.48
NCCCCCC(=O)NCCNC(=O)CC1CCCCC1 [ENMD-1417, N-(2-(2-cyclohexylacetamido)ethyl)-6-aminohexan-amide]	0.38
CC(C)CNC(=O)[C@@H]1CC[C@@H](NC(=O)CCCCCN)C1 [ENMD-1504, N-isobutyl-3R-(6-aminohexanamido)-cyclopentane-1R-carboxamide]	0.71
NCCCCCC(=O)N[C@@H]1CC[C@H](C(=O)NCC2CCCCC2)C1 [ENMD-1505, N-cyclohexylmethyl-3S-(6-aminohexanamido)-cyclopentane-1R-carboxamide]	0.19
NCCCCNC(=O)c1ccc(CCC2CCCCC2)cc1 [ENMD-1509, N-(4-aminobutyl)-4-(2-cyclohexylethyl)-benzamide]	0.71
NCCCCNC(=O)c1ccc(NC(=O)C2CCCCC2)cc1 [ENMD-1511, N-(4-aminobutyl)-4-(cyclohexanecarboxamido)-benzamide hydrochloride]	0.13
NCCCCCC(=O)NC1CN(C(=O)CC2CCCCC2)C1 [ENMD-1513, N-[1-(2-cyclohexylacetyl)azetidin-3-yl]-6-aminohexanamide]	0.97
NCCCCCC(=O)N1CC(NC(=O)CC2CCCCC2)C1 [ENMD-1514, 2-cyclohexylacetamid-N-(6-amino-1-hexanoylazetidin-3-yl)]	0.53
CC(C)CC(=O)N1CC(NC(=O)CCCCCN)C1 [ENMD-1515, N-[1-(3-methylbutanoyl)azetidin-3-yl]-6-aminohexanamide]	0.65
CC(C)CC(=O)NC1CN(C(=O)CCCCCN)C1 [ENMD-1516, N-(6-amino-1-hexanoylazetidin3-yl)-3-methylbutanamide]	0.87
CC(C)CCn1c(=O)n(CCCCCCN)c2ccccc21 [ENMD-1517, 1-(6-aminohexyl)-3-[(3-methyl)butyl]benzimidazol(2)-one]	0.52
NCCCCCCn1c(=O)n(CCC2CCCCC2)c2ccccc21 [ENMD-1518, 1-(6-aminohexyl)-3-[(2-cyclohexyl)ethyl]benzimidazol-(2)-one]	0.58
CC(C)CCc1cn(CCCCCCN)nn1 [ENMD-1519, 1-(6-aminohexyl)-4-(3-methylbutyl)-1,2,3-triazole]	0.65
NCCCCCCn1cc(CCC2CCCCC2)nn1 [ENMD-1520, 1-(6-aminohexyl)-4-(2-cyclohexylethyl)-1,2,3-triazole]	0.36
NCCCCCCNC(=O)C1CN(C(=O)CC2CCCCC2)CCO1 (stereo not shown) [ENMD-1521, 4-(2-Cyclohexyl-acetyl)-morpholine-2-carboxylic acid (6-amino-hexyl)-amide]	1.01
CC(C)CC(=O)N1CCOC(C(=O)NCCCCCCN)C1 (stereo not shown) [ENMD-1522, 4-(3-Methyl-butyryl)-morpholine-2-carboxylic acid (6-amino-hexyl)-amide]	1.00
NCCCCCC(=O)N1CCOC(C(=O)NCC2CCCCC2)C1 (stereo not shown) [ENMD-1523, 4-(6-Amino-hexanoyl)-morpholine-2-carboxylic acid cyclohexylmethyl-amide]	0.54
CC(C)CNC(=O)C1CN(C(=O)CCCCCN)CCO1 (stereo not shown) [ENMD-1524, 4-(6-Amino-hexanoyl)-morpholine-2-carboxylic acid isobutyl-amide]	0.73
CC(C)CNc1nc2ccc(C(=O)NCCCCCCN)cc2[nH]1 [ENMD-1525, 2-Isobutylamino-3H-benzoimidazole-5-carboxylic acid (6-amino-hexyl)-amide]	0.52
NCCCCCCNC(=O)c1ccc2nc(NCC3CCCCC3)[nH]c2c1 [ENMD-1526, 2-(Cyclohexylmethyl-amino)-3H-benzoimidazole-5-carboxylic acid (6-amino-hexyl)-amide]	0.64

SMILES	PAR-2 AP2 Signaling Treated/Control
CC(C)CNC(=O)c1ccc(-c2ccc(NC(=O)CCCCCN)cc2)cc1 [ENMD-1527, 4′-(6-amino-hexanoylamino)-biphenyl-4-carboxylic acid isobutyl-amide]	0.64
CC(C)CNC(=O)c1ccc(-c2ccc(NC(=O)CCCCCN(C)C)cc2)cc1 [ENMD-1529, 4′-(6-Dimethylamino-hexanoylamino)-biphenyl-4-carboxylic acid isobutyl-amide]	0.35
CC(C)CNC(=O)c1cc(NC(=O)CCCCCN)[nH]n1 [ENMD-1533, 5-(6-Amino-hexanoylamino)-1H-pyrazole-3-carboxylic acid isobutyl-amide]	0.68
NCCCCCC(=O)Nc1cc(C(=O)NCC2CCCCC2)n[nH]1 [ENMD-1534, 5-(6-amino-hexanoylamino)-1H-pyrazole-3-carboxylic acid cyclohexylmethyl-amide]	0.44
O=C(Cc1cn(CCCCN2C(=O)c3ccccc3C2=O)cn1)NC1CCCCC1 [ENMD-1535, N-cyclohexyl-2-(1-(4-(1,3-dioxoisoindolin-2-yl)butyl)-1H-imidazol-4-yl)acetamide]	0.46
CC(C)CNC(=O)[C@H]1CC[C@@H](NC(=O)CCCCCN)C1 [ENMD-1536, N-isobutyl-3S-(6-aminohexanamido)-cyclopentane-1R-carboxamide]	0.42
CC(C)Cn1cccc1C(=O)NCCCCCCN [ENMD-1537, N-(6-aminohexyl)-1-(2-methylpropyl)-2-pyrrolecarboxamide]	0.91
NCCCCNC(=O)c1ccc(NCC2CCCCC2)nc1 [ENMD-1538]	0.48
CC(C)CCN1C(C(=O)NCCCCCCN)CCS1(=O)=O (stereo not shown) [ENMD-1539, N-(isoamyl)isothiasolidine-1,1-dioxide-3-carboxylic acid-6-aminohexylamide]	0.25
NCCCCCCNC(=O)c1cccn1CC1CCCCC1 [ENMD-1540, N-(6-aminohexyl)-1-(2-cyclohexylmethyl)-2-pyrrolecarboxamide]	0.05
CC(C)CNc1ccc(C(=O)NCCCCN)cn1 [ENMD-1541]	0.65
NCCCCNc1ccc(C(=O)NCC2CCCCC2)cn1 [ENMD-1543]	0.55
NCCCCCCN1C(C(=O)NCCC2CCCCC2)CCS1(=O)=O (stereo not shown) [ENMD-1545, N-(6-aminohexyl)isothiazolidine-1,1-dioxide-3-carboxylic acid (2-cyclohexyl)ethylamide]	0.35
CC(C)CCNC(=O)C1CCS(=O)(=O)N1CCCCCCN (stereo not shown) [ENMD-1546, N-(6-aminohexyl)isothiazolidine-1,1-dioxide-3-carboxylic acid isoamylamide]	0.97
NCCCCCCNC(=O)C1CCS(=O)(=O)N1CCC1CCCCC1 (stereo not shown) [ENMD-1547, N-(2-cyclohexyl)ethylisothiasolidine-1,1-dioxide-3-carboxylic acid-6-aminohexylamide]	0.24
CC(C)CC(=O)Nc1nc(CC(=O)NCCCCCN)cs1 [ENMD-1549, N-{4-[(5-Amino-pentylcarbamoyl)-methyl]-thiazol-2-yl}-3-methyl-butyramide]	0.26
CC(C)CC(=O)Nc1cc(C(=O)NCCCCCCN)n[nH]1 [ENMD-1550, 5-(3-methyl-butyrylamino)-1H-pyrazole-3-carboxylic acid (6-amino-hexyl)-amide]	0.63
NCCCCCCNC(=O)c1cc(NC(=O)CC2CCCCC2)[nH]n1 [ENMD-1551, 5-(2-cyclohexyl-acetylamino)-1H-pyrazole-3-carboxylic acid (6-amino-hexyl)-amide]	0.66
CC(C)CCc1ccc(C(=O)NCCCCN)cc1 [ENMD-1552, N-(4-aminobutyl)-4-isopentyl-benzamide]	0.10
NCCCCCCNc1nc2ccc(C(=O)NCC3CCCCC3)cc2[nH]1 [ENMD-1553, 2-(6-Amino-hexylamino)-3H-benzoimidazole-5-carboxylic acid cyclohexylmethyl-amide]	0.81
